Source: the NIST ThermoML archive (doi:10.1016/j.jct.2016.02.009)
Numbers after ± are expanded uncertainties.

Experiment: molar heat capacity at constant pressure
Conditions: 101.33 kPa, Small (less than 1 g) adiabatic calorimetry

In the case of `CCCCCCCCCCn1cc[n+](C)c1.O=S(=O)([N-]S(=O)(=O)C(F)(F)F)C(F)(F)F`, the “molar heat capacity at constant pressure” value (4.82 K, Crystal 2) is reported as 3.08 ± 0.09 J/K/mol, the “molar heat capacity at constant pressure” value (4.98 K, Metastable crystal) is reported as 3.38 ± 0.1 J/K/mol and the “molar heat capacity at constant pressure” value (5 K, Crystal 2) is reported as 3.41 ± 0.11 J/K/mol. For the same molecule, the “molar heat capacity at constant pressure” value (5 K, Metastable crystal) was 3.41 ± 0.11 J/K/mol, the “molar heat capacity at constant pressure” value (5.15 K, Crystal 2) was 3.69 ± 0.1 J/K/mol and the “molar heat capacity at constant pressure” value (5.32 K, Metastable crystal) was 4.05 ± 0.11 J/K/mol. For the same molecule, the “molar heat capacity at constant pressure” value (5.49 K, Crystal 2) was 4.38 ± 0.12 J/K/mol, the “molar heat capacity at constant pressure” value (5.67 K, Metastable crystal) was 4.81 ± 0.13 J/K/mol and the “molar heat capacity at constant pressure” value (5.85 K, Crystal 2) was 5.15 ± 0.14 J/K/mol. The “molar heat capacity at constant pressure” value (6.03 K, Metastable crystal) was 5.65 ± 0.15 J/K/mol, the “molar heat capacity at constant pressure” value (6.28 K, Crystal 2) was 6.16 ± 0.16 J/K/mol and the “molar heat capacity at constant pressure” value (6.46 K, Metastable crystal) was 6.76 ± 0.17 J/K/mol. For the same molecule, the “molar heat capacity at constant pressure” value (6.8 K, Crystal 2) was 7.44 ± 0.19 J/K/mol, the “molar heat capacity at constant pressure” value (6.97 K, Metastable crystal) was 8.15 ± 0.21 J/K/mol and the “molar heat capacity at constant pressure” value (7.32 K, Crystal 2) was 8.83 ± 0.22 J/K/mol. The “molar heat capacity at constant pressure” value (7.49 K, Metastable crystal) was 9.71 ± 0.24 J/K/mol, the “molar heat capacity at constant pressure” value (7.85 K, Crystal 2) was 10.34 ± 0.25 J/K/mol and the “molar heat capacity at constant pressure” value (8.02 K, Metastable crystal) was 11.34 ± 0.28 J/K/mol. For the same molecule, the “molar heat capacity at constant pressure” value (8.39 K, Crystal 2) was 11.95 ± 0.29 J/K/mol, the “molar heat capacity at constant pressure” value (8.55 K, Metastable crystal) was 13.1 ± 0.32 J/K/mol and the “molar heat capacity at constant pressure” value (8.92 K, Crystal 2) was 13.66 ± 0.33 J/K/mol. For the same molecule, the “molar heat capacity at constant pressure” value (9.09 K, Metastable crystal) was 14.97 ± 0.36 J/K/mol, the “molar heat capacity at constant pressure” value (9.47 K, Crystal 2) was 15.45 ± 0.37 J/K/mol and the “molar heat capacity at constant pressure” value (9.62 K, Metastable crystal) was 16.9 ± 0.4 J/K/mol. For the same molecule, the “molar heat capacity at constant pressure” value (10 K, Crystal 2) was 17.29 ± 0.33 J/K/mol, the “molar heat capacity at constant pressure” value (10 K, Metastable crystal) was 18.31 ± 0.36 J/K/mol and the “molar heat capacity at constant pressure” value (10.01 K, Crystal 2) was 17.32 ± 0.28 J/K/mol. The “molar heat capacity at constant pressure” value (10.16 K, Metastable crystal) was 18.93 ± 0.31 J/K/mol, the “molar heat capacity at constant pressure” value (10.63 K, Crystal 2) was 19.54 ± 0.31 J/K/mol and the “molar heat capacity at constant pressure” value (10.78 K, Metastable crystal) was 21.32 ± 0.34 J/K/mol. For the same molecule, the “molar heat capacity at constant pressure” value (11.31 K, Crystal 2) was 22.05 ± 0.35 J/K/mol, the “molar heat capacity at constant pressure” value (11.46 K, Metastable crystal) was 24.01 ± 0.37 J/K/mol and the “molar heat capacity at constant pressure” value (12 K, Crystal 2) was 24.68 ± 0.38 J/K/mol. For the same molecule, the “molar heat capacity at constant pressure” value (12.15 K, Metastable crystal) was 26.84 ± 0.41 J/K/mol, the “molar heat capacity at constant pressure” value (12.7 K, Crystal 2) was 27.41 ± 0.42 J/K/mol and the “molar heat capacity at constant pressure” value (12.85 K, Metastable crystal) was 29.77 ± 0.45 J/K/mol. For the same molecule, the “molar heat capacity at constant pressure” value (13.4 K, Crystal 2) was 30.22 ± 0.45 J/K/mol, the “molar heat capacity at constant pressure” value (13.56 K, Metastable crystal) was 32.75 ± 0.49 J/K/mol and the “molar heat capacity at constant pressure” value (14.1 K, Crystal 2) was 33.14 ± 0.49 J/K/mol. The “molar heat capacity at constant pressure” value (14.27 K, Metastable crystal) was 35.9 ± 0.53 J/K/mol, the “molar heat capacity at constant pressure” value (14.81 K, Crystal 2) was 36.15 ± 0.53 J/K/mol and the “molar heat capacity at constant pressure” value (14.99 K, Metastable crystal) was 39.03 ± 0.57 J/K/mol. The “molar heat capacity at constant pressure” value (15 K, Crystal 2) was 36.94 ± 0.52 J/K/mol, the “molar heat capacity at constant pressure” value (15 K, Metastable crystal) was 39.12 ± 0.55 J/K/mol and the “molar heat capacity at constant pressure” value (15.63 K, Crystal 2) was 39.64 ± 0.57 J/K/mol. The “molar heat capacity at constant pressure” value (15.81 K, Metastable crystal) was 42.67 ± 0.61 J/K/mol, the “molar heat capacity at constant pressure” value (16.56 K, Crystal 2) was 43.69 ± 0.62 J/K/mol and the “molar heat capacity at constant pressure” value (16.75 K, Metastable crystal) was 46.88 ± 0.66 J/K/mol. For the same molecule, the “molar heat capacity at constant pressure” value (17.51 K, Crystal 2) was 47.81 ± 0.66 J/K/mol, the “molar heat capacity at constant pressure” value (17.7 K, Metastable crystal) was 51.06 ± 0.71 J/K/mol and the “molar heat capacity at constant pressure” value (18.46 K, Crystal 2) was 51.81 ± 0.71 J/K/mol. The “molar heat capacity at constant pressure” value (18.65 K, Metastable crystal) was 55.14 ± 0.75 J/K/mol, the “molar heat capacity at constant pressure” value (19.4 K, Crystal 2) was 55.79 ± 0.75 J/K/mol and the “molar heat capacity at constant pressure” value (19.6 K, Metastable crystal) was 59.21 ± 0.79 J/K/mol. For the same molecule, the “molar heat capacity at constant pressure” value (20 K, Crystal 2) was 58.37 ± 0.57 J/K/mol, the “molar heat capacity at constant pressure” value (20 K, Metastable crystal) was 61 ± 0.59 J/K/mol and the “molar heat capacity at constant pressure” value (20.36 K, Crystal 2) was 59.87 ± 0.58 J/K/mol. The “molar heat capacity at constant pressure” value (20.85 K, Metastable crystal) was 64.6 ± 0.61 J/K/mol, the “molar heat capacity at constant pressure” value (21.61 K, Crystal 2) was 65.16 ± 0.6 J/K/mol and the “molar heat capacity at constant pressure” value (22.41 K, Metastable crystal) was 71.3 ± 0.64 J/K/mol. The “molar heat capacity at constant pressure” value (23.17 K, Crystal 2) was 71.8 ± 0.63 J/K/mol, the “molar heat capacity at constant pressure” value (23.98 K, Metastable crystal) was 78 ± 0.67 J/K/mol and the “molar heat capacity at constant pressure” value (24.75 K, Crystal 2) was 78.35 ± 0.66 J/K/mol. The “molar heat capacity at constant pressure” value (25 K, Crystal 2) was 79.32 ± 0.66 J/K/mol, the “molar heat capacity at constant pressure” value (25 K, Metastable crystal) was 82.14 ± 0.69 J/K/mol and the “molar heat capacity at constant pressure” value (25.56 K, Metastable crystal) was 84.49 ± 0.69 J/K/mol. For the same molecule, the “molar heat capacity at constant pressure” value (26.31 K, Crystal 2) was 84.64 ± 0.68 J/K/mol, the “molar heat capacity at constant pressure” value (27.07 K, Metastable crystal) was 90.53 ± 0.71 J/K/mol and the “molar heat capacity at constant pressure” value (27.89 K, Crystal 2) was 90.84 ± 0.69 J/K/mol. The “molar heat capacity at constant pressure” value (28.66 K, Metastable crystal) was 96.83 ± 0.72 J/K/mol, the “molar heat capacity at constant pressure” value (29.55 K, Crystal 2) was 97.23 ± 0.7 J/K/mol and the “molar heat capacity at constant pressure” value (30 K, Crystal 2) was 98.9 ± 0.59 J/K/mol. For the same molecule, the “molar heat capacity at constant pressure” value (30 K, Metastable crystal) was 102 ± 0.6 J/K/mol, the “molar heat capacity at constant pressure” value (30.24 K, Metastable crystal) was 102.9 ± 0.6 J/K/mol and the “molar heat capacity at constant pressure” value (31.4 K, Crystal 2) was 104 ± 0.6 J/K/mol. The “molar heat capacity at constant pressure” value (31.98 K, Metastable crystal) was 109.5 ± 0.6 J/K/mol, the “molar heat capacity at constant pressure” value (33.31 K, Crystal 2) was 110.8 ± 0.6 J/K/mol and the “molar heat capacity at constant pressure” value (33.9 K, Metastable crystal) was 116.3 ± 0.7 J/K/mol. For the same molecule, the “molar heat capacity at constant pressure” value (35 K, Crystal 2) was 116.6 ± 0.7 J/K/mol, the “molar heat capacity at constant pressure” value (35 K, Metastable crystal) was 120.1 ± 0.7 J/K/mol and the “molar heat capacity at constant pressure” value (35.22 K, Crystal 2) was 117.3 ± 0.7 J/K/mol. The “molar heat capacity at constant pressure” value (35.82 K, Metastable crystal) was 123 ± 0.7 J/K/mol, the “molar heat capacity at constant pressure” value (37.13 K, Crystal 2) was 123.7 ± 0.7 J/K/mol and the “molar heat capacity at constant pressure” value (37.74 K, Metastable crystal) was 129.4 ± 0.7 J/K/mol. For the same molecule, the “molar heat capacity at constant pressure” value (39.05 K, Crystal 2) was 129.9 ± 0.7 J/K/mol, the “molar heat capacity at constant pressure” value (39.66 K, Metastable crystal) was 135.6 ± 0.8 J/K/mol and the “molar heat capacity at constant pressure” value (40 K, Crystal 2) was 132.9 ± 0.7 J/K/mol. The “molar heat capacity at constant pressure” value (40 K, Metastable crystal) was 136.7 ± 0.8 J/K/mol, the “molar heat capacity at constant pressure” value (41.06 K, Crystal 2) was 136.2 ± 0.8 J/K/mol and the “molar heat capacity at constant pressure” value (41.68 K, Metastable crystal) was 142 ± 0.8 J/K/mol. For the same molecule, the “molar heat capacity at constant pressure” value (43.16 K, Crystal 2) was 142.8 ± 0.8 J/K/mol, the “molar heat capacity at constant pressure” value (43.79 K, Metastable crystal) was 148.7 ± 0.8 J/K/mol and the “molar heat capacity at constant pressure” value (45 K, Metastable crystal) was 152.5 ± 0.9 J/K/mol. For the same molecule, the “molar heat capacity at constant pressure” value (45.27 K, Crystal 2) was 149.2 ± 0.8 J/K/mol, the “molar heat capacity at constant pressure” value (45.9 K, Metastable crystal) was 155.3 ± 0.9 J/K/mol and the “molar heat capacity at constant pressure” value (47.38 K, Crystal 2) was 155.7 ± 0.9 J/K/mol. For the same molecule, the “molar heat capacity at constant pressure” value (48.02 K, Metastable crystal) was 161.8 ± 0.9 J/K/mol, the “molar heat capacity at constant pressure” value (49.5 K, Crystal 2) was 161.9 ± 0.9 J/K/mol and the “molar heat capacity at constant pressure” value (50 K, Crystal 2) was 163.2 ± 1 J/K/mol. The “molar heat capacity at constant pressure” value (50 K, Metastable crystal) was 167.6 ± 1 J/K/mol, the “molar heat capacity at constant pressure” value (50.15 K, Metastable crystal) was 168 ± 0.9 J/K/mol and the “molar heat capacity at constant pressure” value (51.63 K, Crystal 2) was 168 ± 0.9 J/K/mol. For the same molecule, the “molar heat capacity at constant pressure” value (52.27 K, Metastable crystal) was 174.1 ± 1 J/K/mol, the “molar heat capacity at constant pressure” value (53.75 K, Crystal 2) was 173.9 ± 1 J/K/mol and the “molar heat capacity at constant pressure” value (54.4 K, Metastable crystal) was 180 ± 1 J/K/mol. The “molar heat capacity at constant pressure” value (55.87 K, Crystal 2) was 179.6 ± 1 J/K/mol, the “molar heat capacity at constant pressure” value (56.52 K, Metastable crystal) was 185.7 ± 1 J/K/mol and the “molar heat capacity at constant pressure” value (57.99 K, Crystal 2) was 185.1 ± 1 J/K/mol.
